From patent US9328106B2, “Cyclic ether pyrazol-4-yl-heterocyclyl-carboxamide compounds and methods of use” (Genentech, Inc., priority 2012, dated 2016)

The molecules below were run against PIM1 (Homo sapiens (Human), UniProt P11309) (assay: biochemical). Details: 20 pM PIM1, 1 μM FAM-peptide, 10 μM ATP, 90 minutes at room temperature; read-out: PIM1 LC3K (KI).
PIM1, sequence (P11309 whole entry): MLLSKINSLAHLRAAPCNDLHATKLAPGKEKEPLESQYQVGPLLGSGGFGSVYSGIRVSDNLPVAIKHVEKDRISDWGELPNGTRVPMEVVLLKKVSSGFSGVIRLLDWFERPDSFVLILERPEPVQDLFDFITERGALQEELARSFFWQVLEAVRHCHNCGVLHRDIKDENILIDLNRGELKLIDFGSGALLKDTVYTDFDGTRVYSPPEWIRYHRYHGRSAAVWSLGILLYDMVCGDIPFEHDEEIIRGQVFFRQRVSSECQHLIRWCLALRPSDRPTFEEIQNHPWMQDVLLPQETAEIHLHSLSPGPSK
Format: biochemical
For Cc1c(-c2nc(C(=O)Nc3cnn(C)c3[C@@H]3CC[C@@H](N)[C@H](F)CO3)cs2)cnn1C [Example 242, N-(5-((2S,5R,6S)-5-amino-6-fluorooxepan-2-yl)-1-methyl-1H-pyrazol-4-yl)-2-(1,5-dimethyl-1H-pyrazol-4-yl)thiazole-4-carboxamide], the Ki was 0.218 nM.
Cn1ncc(NC(=O)c2nc(-c3c(F)cccc3F)sc2N)c1C1CCCCO1 (stereo not shown) [Example 104, 5-amino-2-(2,6-difluorophenyl)-N-(1-methyl-5-tetrahydropyran-2-yl-pyrazol-4-yl)thiazole-4-carboxamide] was tested, and the Ki was 0.424 nM.
Work on Cn1ncc(NC(=O)c2csc(-c3c(F)cccc3F)n2)c1[C@@H]1CC[C@@H](N)[C@H](O)CO1 [Example 352, N-(5-((2S,5R,6S)-5-amino-6-hydroxyoxepan-2-yl)-1-methyl-1H-pyrazol-4-yl)-2-(2,6-difluorophenyl)thiazole-4-carboxamide] yielded a Ki of 0.174 nM.
Cn1ncc(NC(=O)c2ccc(F)c(-c3c(F)cc(C(CO)CO)cc3F)n2)c1[C@@H]1CC[C@@H](N)[C@H](F)CO1 [Example 214, N-(5-((2S,5R,6S)-5-amino-6-fluorooxepan-2-yl)-1-methyl-1H-pyrazol-4-yl)-6-(4-(1,3-dihydroxypropan-2-yl)-2,6-difluorophenyl)-5-fluoropicolinamide] showed a Ki of 0.075 nM.
Molecule Cn1ncc(NC(=O)c2ccc(F)c(-c3cccc(F)c3F)n2)c1[C@@H]1CC[C@@H](N)[C@H](F)CO1 [Example 223, N-(5-((2S,5R,6S)-5-amino-6-fluorooxepan-2-yl)-1-methyl-1H-pyrazol-4-yl)-6-(2,3-difluorophenyl)-5-fluoropicolinamide] has a Ki of 0.083 nM.
C[C@H]1O[C@@H](c2c(NC(=O)c3nc(-c4c(F)cccc4F)sc3N)cnn2C)CC(F)(F)[C@@]1(C)N (stereo in doubt) [Example 179, 5-Amino-N-[5-[5-amino-4,4-difluoro-5,6-dimethyl-tetrahydropyran-2-yl]-1-methyl-pyrazol-4-yl]-2-(2,6-difluorophenyl)thiazole-4-carboxamide] was tested, and the Ki was 0.456 nM.
With Cn1ncc(NC(=O)c2csc(-n3cc4ccccc4n3)n2)c1[C@@H]1CC[C@@H](N)[C@H](F)CO1 [Example 396, N-(5-((2S,5R,6S)-5-amino-6-fluorooxepan-2-yl)-1-methyl-1H-pyrazol-4-yl)-2-(2H-indazol-2-yl)thiazole-4-carboxamide] the Ki was 0.002 nM.
Work on Cn1ncc(NC(=O)c2nc(-c3c(F)cccc3F)sc2N)c1[C@@H]1CC[C@@H](N)C(F)(F)CO1 [Example 168, 5-Amino-N-[5-[(2S,5R)-5-amino-6,6-difluoro-oxepan-2-yl]-1-methyl-pyrazol-4-yl]-2-(2,6-difluorophenyl)thiazole-4-carboxamide] yielded a Ki of 0.013 nM.
In the case of CC(O)c1cc(F)c(-c2nc(C(=O)Nc3cnn(C)c3[C@@H]3CC[C@@H](N)[C@H](F)CO3)ccc2F)c(F)c1 (stereo partly drawn) [Example 207, N-(5-((2S,5R,6S)-5-amino-6-fluorooxepan-2-yl)-1-methyl-1H-pyrazol-4-yl)-6-(2,6-difluoro-4-(1-hydroxyethyl)phenyl)-5-fluoropicolinamide], the Ki is reported as 0.017 nM.
For Cc1cc(F)c(-c2nc(C(=O)Nc3cnn(C)c3[C@@H]3CC[C@@H](N)[C@H](F)CO3)cs2)c(F)c1 [Example 312, N-(5-((2S,5R,6S)-5-amino-6-fluorooxepan-2-yl)-1-methyl-1H-pyrazol-4-yl)-2-(2,6-difluoro-4-methylphenyl)thiazole-4-carboxamide], the Ki was 0.003 nM.
For Cn1ncc(NC(=O)c2nc(-c3c(F)cccc3F)sc2N)c1[C@@H]1C[C@@H](N)[C@@H](F)CCO1 (stereo in doubt) [Example 170, 5-Amino-N-[5-[4-amino-5-fluoro-oxepan-2-yl]-1-methyl-pyrazol-4-yl]-2-(2,6-difluorophenyl)thiazole-4-carboxamide], the Ki was 0.126 nM.
With Cn1ncc(NC(=O)c2nc(-c3c(F)cccc3F)sc2N)c1[C@H]1CC[C@H](CN)O1 [Example 171, 5-Amino-N-[5-[(2R,5R)-5-(aminomethyl)tetrahydrofuran-2-yl]-1-methyl-pyrazol-4-yl]-2-(2,6-difluorophenyl)thiazole-4-carboxamide] the Ki was 0.027 nM.
Cn1ncc(NC(=O)c2nc(-c3c(F)cccc3F)sc2N)c1C1C[C@@H](N)[C@H](F)CCO1 (stereo partly drawn) [Example 141, 5-amino-N-(5-((4R,5R)-4-amino-5-fluorooxepan-2-yl)-1-methyl-1H-pyrazol-4-yl)-2-(2,6-difluorophenyl)thiazole-4-carboxamide] showed a Ki of 0.07 nM.
With Cn1ncc(NC(=O)c2ccc(F)c(-c3cc(F)ccc3F)n2)c1[C@@H]1CC[C@@H](N)[C@H](F)CO1 [Example 222, N-(5-((2S,5R,6S)-5-amino-6-fluorooxepan-2-yl)-1-methyl-1H-pyrazol-4-yl)-6-(2,5-difluorophenyl)-5-fluoropicolinamide] the Ki was 0.161 nM.
CO[C@H]1COC(c2c(NC(=O)c3nc(-c4c(F)cccc4F)sc3N)cnn2C)CC[C@@H]1N (stereo partly drawn) [Example 128, 5-amino-N-(5-((5S,6R)-5-amino-6-methoxyoxepan-2-yl)-1-methyl-1H-pyrazol-4-yl)-2-(2,6-difluorophenyl)thiazole-4-carboxamide] gave a Ki of 0.476 nM.
In the case of COc1ccc(F)c(F)c1-c1nc(C(=O)Nc2cnn(C)c2[C@@H]2CC[C@@H](N)[C@@H](F)CO2)c(N)s1 [Example 277, 5-amino-N-(5-((2S,5R,6R)-5-amino-6-fluorooxepan-2-yl)-1-methyl-1H-pyrazol-4-yl)-2-(2,3-difluoro-6-methoxyphenyl)thiazole-4-carboxamide], the Ki is reported as 0.143 nM.
Cn1ncc(NC(=O)c2nc(-c3c(F)cccc3F)sc2N)c1[C@H]1OC[C@@](C)(CN)CO1 [Example 178, 5-Amino-N-[5-[5-(aminomethyl)-5-methyl-1,3-dioxan-2-yl]-1-methyl-pyrazol-4-yl]-2-(2,6-difluorophenyl)thiazole-4-carboxamide] gave a Ki of 0.155 nM.
COC1(c2c(NC(=O)c3nc(-c4c(F)cccc4F)sc3N)cnn2C)CCCCO1 (stereo not shown) [Example 103, 5-amino-2-(2,6-difluorophenyl)-N-[5-(2-methoxytetrahydropyran-2-yl)-1-methyl-pyrazol-4-yl]thiazole-4-carboxamide] was tested, and the Ki was 0.209 nM.
Cc1cccnc1-c1nc(C(=O)Nc2cnn(C)c2[C@@H]2CC[C@@H](N)[C@H](F)CO2)cs1 [Example 231, N-(5-((2S,5R,6S)-5-amino-6-fluorooxepan-2-yl)-1-methyl-1H-pyrazol-4-yl)-2-(3-methylpyridin-2-yl)thiazole-4-carboxamide] was tested, and the Ki was 0.045 nM.
Cn1ncc(NC(=O)c2ccc(F)c(-c3c(F)cc(OCCO)cc3F)n2)c1[C@@H]1CC[C@@H](N)[C@@H](F)CO1 [Example 190, N-(5-((2S,5R,6R)-5-Amino-6-fluorooxepan-2-yl)-1-methyl-1H-pyrazol-4-yl)-6-(2,6-difluoro-4-(2-hydroxyethoxy)phenyl)-5-fluoropicolinamide] was tested, and the Ki was 0.014 nM.
Cn1ncc(NC(=O)c2nc(-c3ccc(C(F)(F)F)cc3F)sc2N)c1[C@@H]1CC[C@@H](N)[C@@H](F)CO1 [Example 259, 5-amino-N-(5-((2S,5R,6R)-5-amino-6-fluorooxepan-2-yl)-1-methyl-1H-pyrazol-4-yl)-2-(2-fluoro-4-(trifluoromethyl)phenyl)thiazole-4-carboxamide] showed a Ki of 0.01 nM.
Molecule Cn1ncc(NC(=O)c2nc(C3=CCCC3)sc2N)c1[C@@H]1CC[C@@H](N)[C@@H](F)CO1 [Example 271, 5-amino-N-(5-((2S,5R,6R)-5-amino-6-fluorooxepan-2-yl)-1-methyl-1H-pyrazol-4-yl)-2-(cyclopent-1-en-1-yl)thiazole-4-carboxamide] has a Ki of 0.062 nM.
